Laboratory results taken from US10294243B2, “Bicyclic compounds as pesticides” (BAYER CROPSCIENCE AKTIENGESELLSCHAFT, priority 2014, dated 2019).
Like-named read-outs stand apart in the source and are kept apart here.

How the values were obtained:
[1] = log P by HPLC on reversed-phase C18 columns (OECD Guideline 117); method [a] acidic pH 2.7, method [b] neutral pH 7.8; format: physicochemical; conditions: reversed-phase C18 HPLC column
[2] = system: Myzus persicae; assay: Myzus persicae - spray test (Chinese cabbage leaf discs); format: in vivo; conditions: Myzus persicae, foliar, 144 h, application rate 500 g/ha, after 6 days, read-out: efficacy (aphids killed)
Protocol: Myzus persicae—Spray Test
Solvent: 78 parts by weight of acetone • • 1.5 parts by weight of dimethylformamide
Emulsifier: alkylaryl polyglycol ether
To produce further test concentrations, the preparation is diluted with emulsifier-containing water.
After 6 days, the efficacy in % is determined 100% means that all the aphids have been killed; 0% means that none of the aphids have been killed.

[3] = system: Meloidogyne incognita; assay: Meloidogyne incognita test; format: in vivo; conditions: application rate 20 ppm, lettuce, after 14 days
Protocol: Meloidogyne Incognita Test
Solvent: 125.0 parts by weight of acetone
Vessels are filled with sand, active compound solution, an egg/larvae suspension of the southern root-knot nematode (Meloidogyne incognita) and lettuce seeds. The lettuce seeds germinate and the plants develop. The galls develop on the roots.
After 14 days, the nematicidal efficacy in % is determined by the formation of galls. 100% means that no galls were found; 0% means that the number of galls on the treated plants corresponds to the untreated control.

chromatographic logP ([1]; HPLC reversed-phase C18, method [a] acidic pH 2.7, read-out: logP[a]): 2.03
chromatographic logP ([1]; HPLC reversed-phase C18, method [b] neutral pH 7.8, read-out: logP[b]): 1.99
Structure (SMILES): O=c1c2sc(-c3cccnc3)nc2ncn1-c1ccc([S+]([O-])C(F)(F)F)cc1 (stereo not shown) [Compound 63, 2-(Pyridin-3-yl)-6-{4-[(trifluoromethyl)sulphinyl]phenyl}[1,3]thiazolo[4,5-d]pyrimidin-7(6H)-one]
pest or weed control at 500 g/ha [2]: 90%
nematicidal efficacy (formation of galls) [3]: 90%
